Test results from patent publication US7737169B2, “Anionically substituted 7-nitroindoline derivatives and their uses” (Medical Research Council, priority 2005, dated 2010).

Tests used:
GABA receptors = settings: caged ester before photolysis; cited from earlier work
GABA channels = test: photolytic release of GABA onto neuronal cells, current responses (FIG. 1); assay type: cell-based
Description: FIG. 1. Current responses to photolytic release of GABA from various concentrations of 6 onto two different neuronal cells, as specified in the FIGURE. The experimental set-up and protocol was as described in reference 4.
A previous evaluation of nitroindoline-caged amino acids in neural tissue has been published^4. […] Tests described here were to assess the photolytic efficiency of GABA release in a neurophysiological experiment with particular attention to point (3), namely the presence or absence of interference of the new caged GABA with GABA-activated channels. If interference is low the expectation is that the rise-time of the receptor activation by photoreleased GABA in the presence of high cage concentration should be similar to that generated by endogenously released GABA, rising in 1-2 ms.

Q: Which pharmacological effects (GABA receptors) does the source give for NCCCC(=O)OC(C(=O)O)c1ccccc1[N+](=O)[O-] (stereo not drawn) [Compound 5, α-carboxy-2-nitrobenzyl ester of GABA] here?
A: no pharmacological effects

Q: Which results are given for NCCCC(=O)N1CCc2c(OC(COP(=O)(O)O)COP(=O)(O)O)ccc([N+](=O)[O-])c21 [Compound 6, 1-(4-Aminobutanoyl)-4-[1,3-bis(dihydroxyphosphoryloxy)propan-2-yloxy]-7-nitroindoline]?
A: rise-time of current through GABA channels (GABA channels; 0.5 mM GABA released, 1.5 mM caged GABA present, FIG. 1 left panel): 1 ms; amplitude and rate of rise of currents through GABA channels (GABA channels; 20-200 μm GABA released by different photolysis intensities, 1.4 mM caged GABA present, FIG. 1 right panel): increasing amplitudes and rates of rise at high concentration
